Measurements from US10172843B2, “Piperidine derivatives” (Hoffmann-La Roche Inc., priority 2014, dated 2019).

Biological target: human Cat S (Homo sapiens (Human), UniProt P25774)
Test: Cathepsin enzyme inhibition assay (fluorogenic peptide substrate)
Type: biochemical
Settings: human Cat S, enzyme 1 nM, substrate Z-Val-Val-Arg-AMC, pH 6.5; read-out: CatS IC50
Method: Cathepsin Enzyme Inhibition Assay
Enzyme activity is measured by observing the increase in fluorescence intensity caused by cleavage of a peptide substrate containing a fluorophore whose emission is quenched in the intact peptide.
Assay buffer: 100 mM potassium phosphate pH 6.5, EDTA-Na 5 mM, Triton X-100 0.001%, DTT 5 mM.
Enzymes (all at 1 nM): human and mouse Cathepsin S, Cat K, Cat B, Cat L.
Substrate ([…], except for Cat K which uses Z-Leu-Arg-AMC (both from Bachem).
Excitation 360 nm, Emission 465 nm.
Enzyme is added to the substance dilutions in 96-well microtitre plates and the reaction is started with substrate. […] IC50 are calculated by standard methods.
Inhibition of human Cat S, mouse Cat S, human Cat K, mouse Cat K, human Cat B, mouse Cat B, human Cat L and mouse Cat L have been measured separately.

human Cat S, sequence (P25774 115-331): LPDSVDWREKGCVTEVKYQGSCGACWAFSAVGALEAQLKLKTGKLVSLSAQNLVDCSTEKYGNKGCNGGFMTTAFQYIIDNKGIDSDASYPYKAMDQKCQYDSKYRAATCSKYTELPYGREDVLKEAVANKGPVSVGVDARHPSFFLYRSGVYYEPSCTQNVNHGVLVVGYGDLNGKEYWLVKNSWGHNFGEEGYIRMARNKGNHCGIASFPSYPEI

For `Cc1[nH]c(-c2ccc(S(=O)(=O)C(F)(F)F)cc2)nc1CN1CCC(c2c[nH]c3ccncc23)CC1` [Example 77, 3-{1-[5-Methyl-2-(4-trifluoromethanesulfonyl-phenyl)-1H-imidazol-4-ylmethyl]-piperidin-4-yl}-1H-pyrrolo[3,2-c]pyridine], the IC50 was 155 nM.
With `O=c1[nH]c(-c2ccc(Br)cc2)nn1C1CCN(Cc2cnc(-c3ccc(C(F)(F)F)cc3)[nH]2)CC1` [Example 16, 5-(4-Bromophenyl)-2-[1-[[2-[4-(trifluoromethyl)phenyl]-1H-imidazol-5-yl]methyl]-4-piperidyl]-4H-1,2,4-triazol-3-one] the IC50 was 1500 nM.
For `CC(=O)OCCn1c(=O)n(C2CCN(Cc3nc(-c4ccc(C(F)(F)F)cc4)[nH]c3C)CC2)c2ccc(Cl)cc21` [Example 29, Acetic acid 2-(6-chloro-3-{1-[5-methyl-2-(4-trifluoromethyl-phenyl)-1H-imidazol-4-ylmethyl]-piperidin-4-yl}-2-oxo-2,3-dihydro-benzoimidazol-1-yl)-ethyl ester], the IC50 was 280 nM.
In the case of `Cc1nc(-c2ccc(C(F)(F)F)cc2)[nH]c1CN1CCC(n2cnc3c(=O)[nH]ccc32)CC1` [Example 13, 1-[1-[[4-Methyl-2-[4-(trifluoromethyl)phenyl]-1H-imidazol-5-yl]methyl]-4-piperidyl]-5H-imidazo[4,5-c]pyridin-4-one], the IC50 is reported as 2750 nM.
`Cc1cn(-c2ccc(C(F)(F)F)cc2)nc1CN1CCC(N2Cc3ccccc3NC2=O)CC1` [Example 68, 3-{1-[4-Methyl-1-(4-trifluoromethyl-phenyl)-1H-pyrazol-3-ylmethyl]-piperidin-4-yl}-3,4-dihydro-1H-quinazolin-2-one] showed an IC50 of 650 nM.
For `Cc1[nH]c(-c2ccc(Cl)c(F)c2)nc1CN1CCC(N2Cc3ccccc3NC2=O)CC1` [Example 50, 3-{1-[2-(4-Chloro-3-fluoro-phenyl)-5-methyl-1H-imidazol-4-ylmethyl]-piperidin-4-yl}-3,4-dihydro-1H-quinazolin-2-one], the IC50 was 605 nM.
